In US5714576A, “Linear analogs of alpha-msh fragments” (Competitive Technologies, Inc., priority 1997, dated 1998):
Like-named read-outs stand apart in the source and are kept apart here. Non-standard residues stand in square brackets, D forms with d. Residues, ends and D or L forms follow the SMILES beside them. Nle = CCCC[C@H](N)C(=O)O; Dab = NCC[C@H](N)C(=O)O

Key:
[1] = test system: Frog (Rana pipiens) Skin; details: cited from earlier work; for Relative Potency Frog: relative to alpha-MSH = 1.0, selective fragments of alpha-MSH, previous research
[2] = test system: Lizard (Anolis carolinensis) Skin; details: relative to alpha-MSH = 1.0; selective fragments of alpha-MSH, previous research; cited from earlier work
[3] = test system: Frog (Rana pipiens) Skin; type: cell-based
Experimental: (§1) The biological potencies of alpha-MSH, the linear and cyclic analogues were determined by their ability to stimulate melanosome dispersion in vitro in the frog and lizard bioassays. This in vitro assay provides clear cut dose response curves (between 2.5×10^-11 and 4×10^-10 M) and can detect minimal concentration of alpha-MSH of about 10^-11 M. The assay is based upon the centrifugal dispersion of melanosomes (melanin granules) within the dendritic processes of integumental dermal melanophores leading to darkening of the skin. All the test solutions were prepared via serial dilutions from a stock solution (10^-4 M). The frogs (Rana pipiens) used in these evaluations were obtained from Kons Scientific, Germantown, Wis., and the lizards (Anolis carolinensis) were from the Snake Farm, La Place, La.

[4] = test system: Lizard (Anolis carolinensis) Skin; type: cell-based
Experimental: as §1

[5] = cyclic analogues, alpha-MSH = 1.0

Compound | Relative Potency Frog [1] | Relative Potency Lizard [2] | Biological Potency Frog [3] | Residual Activity Frog (prolonged action) ([3]; linear analogues) | Biological Potency Lizard [4] | Residual Activity Lizard (prolonged action) ([4]; linear analogues) | also measured
Ac--[Nle^4,D--Phe^7 ]-alpha-MSH1-13 NH2 | 60.0 | 5.0 | – | – | – | – | –
Ac-Met-Glu-His-Phe-Arg-Trp-Gly-NH2 [Ac-alpha-MSH4-10 NH2] | 0.0003 | 0.004 | – | – | – | – | melanocyte stimulating activity in frog skin ([1]; compared to the native hormone): weak agonist
CCCC[C@H](NC(C)=O)C(=O)N[C@@H](CCC(=O)O)C(=O)N[C@@H](Cc1c[nH]cn1)C(=O)N[C@H](Cc1ccccc1)C(=O)N[C@@H](CCCNC(=N)N)C(=O)N[C@@H](Cc1c[nH]c2ccccc12)C(=O)N[C@@H](CCN)C(N)=O [Analogue 10] (Ac-[Nle]EH[dF]RW[Dab]-NH2) | – | – | 0.9 | P(±) | 10.0 | P(±) | –
Ac--[Nle^4 ]-alpha-MSH4-10 NH2 | 0.002 | 0.06 | – | – | – | – | –
CCCC[C@H](NC(C)=O)C(=O)N[C@@H](CC(=O)O)C(=O)N[C@@H](Cc1c[nH]cn1)C(=O)N[C@H](Cc1ccccc1)C(=O)N[C@@H](CCCNC(=N)N)C(=O)N[C@@H](Cc1c[nH]c2ccccc12)C(=O)N[C@@H](CCN)C(N)=O [Analogue 11] | – | – | 0.9 | P(-) | 50.0 | P(-) | –
CCCC[C@H](NC(C)=O)C(=O)N[C@@H](CC(=O)O)C(=O)N[C@@H](Cc1c[nH]cn1)C(=O)N[C@H](Cc1ccccc1)C(=O)N[C@@H](CCCNC(=N)N)C(=O)N[C@@H](Cc1c[nH]c2ccccc12)C(=O)N[C@@H](CN)C(N)=O [Analogue 12] | – | – | 0.2 | P(-) | 8.0 | P(-) | –
Ac[Nle^4, D--Phe^7 ]-alpha-MSH4-11 NH2 | 0.16 | 8.0 | – | – | – | – | –
CCCC[C@H](NC(C)=O)C(=O)N[C@H]1CC(=O)NCC[C@@H](C(N)=O)NC(=O)[C@H](Cc2c[nH]c3ccccc23)NC(=O)[C@H](CCCNC(=N)N)NC(=O)[C@@H](Cc2ccccc2)NC(=O)[C@H](Cc2c[nH]cn2)NC1=O [Analogue 19] | – | – | – | – | – | – | Residual Activity Frog (prolonged action) ([3]; cyclic analogues): p(-); Biological Potency Frog [3, 5]: 1.0; Residual Activity Lizard (prolonged action) ([4]; cyclic analogues): p(-); Biological Potency Lizard [4, 5]: 5.0
CCCC[C@H](NC(C)=O)C(=O)N[C@H]1CC(=O)NCCC[C@@H](C(N)=O)NC(=O)[C@H](Cc2c[nH]c3ccccc23)NC(=O)[C@H](CCCNC(=N)N)NC(=O)[C@@H](Cc2ccccc2)NC(=O)[C@H](Cc2c[nH]cn2)NC1=O [Analogue 18] | – | – | – | – | – | – | Residual Activity Frog (prolonged action) ([3]; cyclic analogues): p(-); Biological Potency Frog [3, 5]: 1.0; Residual Activity Lizard (prolonged action) ([4]; cyclic analogues): p(-); Biological Potency Lizard [4, 5]: 20.0
CCCC[C@H](NC(C)=O)C(=O)N[C@@H](CCC(=O)O)C(=O)N[C@@H](Cc1c[nH]cn1)C(=O)N[C@@H](Cc1ccccc1)C(=O)N[C@@H](CCCNC(=N)N)C(=O)N[C@@H](Cc1c[nH]c2ccccc12)C(=O)N[C@@H](CCCCN)C(N)=O [Analogue 13] | – | – | 0.001 | P(+) | 0.08 | P(-) | –
Ac--[Nle^4 ]-alpha-MSH4-11 NH2 | 0.002 | 1.0 | – | – | – | – | –
Ac--[Nle^4, D--Phe^7 ]-alpha-MSH4-10 NH2 | 0.02 | 10.0 | – | – | – | – | –
